One assay addresses T1, human full-length Syk (Homo sapiens, UniProt P43405).
T1 construct: Recombinant human full-length Syk was supplied by Millipore; purchased Millipore
In words: Syk Enzyme assay - Radioactive filtration kinase assay. The settings on record: recombinant human full-length Syk 1 nM, poly-GT substrate, [γ-33P] ATP, 40 min room temperature. Format: biochemical. As to the method: Syk Enzyme assay- Radioactive filtration kinase assay
Recombinant human full-length Syk was supplied by Millipore. The activity of Syk kinase was assessed using a radioactive filtration kinase assay.
10 µL of substrate poly-GT (100 µg/mL final) and 4 µl of Syk (1 nM final) in 50 mM Tris-HCl (pH 7.5), 0.1 mM EGTA, 4 mM Mg(CH3COO)2, 0.1 mM Na3VO4, 0.1% (v/v) β-mercaptoethanol, 0.133 mg/mL BSA (bovine serum albumin) were added to 1.5 µl of various concentrations of compound or DMSO vehicle (5% final). The reaction was initiated by the addition of 14.5 µL of 0.36 µCi [γ-^33P] ATP (adenosine tri-phosphate) (10 mCi/ml, PerkinElmer). This was prepared in a half-area NBS plate (Corning) and allowed to stand at room temperature for 40 min.
15 µL of reaction mixture was transferred to a filter plate (Millipore) previously prewetted with a solution of 75 mM phosphoric acid. The reaction was terminated with the addition of 200 µL phosphoric acid. The filter plate was washed three times under vacuum on a vacuum manifold (Millipore cat# MSVMHTS00) at 8" Hg vacuum level with 200 µL phosphoric acid per wash.
30 µL Optiphase™ Supermix (PerkinElmer) was added to each test well and allowed to incubate for at least 1 h before counting. Radioactivity counting was performed in a Wallac MicroBeta®, and the tyrosine phosphorylation activity by Syk was calculated.

A further assay concerns LAD2 cells. The assay is described as follows: LAD2 cells assay (mast cell degranulation, β-hexosaminidase release). It counts as cell-based. The settings on record: Homo sapiens, 0.5 h; biotin-labeled IgE sensitized LAD2 cells, compound 30 min, activated with 125 ng/mL streptavidin 30 min, released β-hexosaminidase. The text has this: LAD2 is a human mast cell line depending on stem cell factor for its survival, maturation and differentiation. This mast cell line was established by the NIH from bone marrow aspirates from a patient with mast cell sarcoma. LAD2 cells resemble CD34+ - derived human mast cells as they have granules containing tryptase, histamine and β-hexosaminidase. They also express c-kit and FcεRI (Kirshenbaum, et al., Leukemia Research 27: 677-682, 2003).
Sensitization of LAD2 cells
Cells were sensitized (0.2x10^6 cells/mL) in its normal growth factor (Complete StemPro-34 SFM, Gibco 10639-011 containing StemPro-34 nutrient supplement (1/40); glutamine (2 mM) and supplemented with 100 ng/ml SCF) by adding 100 ng/mL of biotin-labeled IgE (USBiological) overnight (16-18 h, 37º, 5% CO2) in a humidified atmosphere (90%).
Compounds were prepared from a 10^-2M stock in 100% DMSO to give seven successive 1/3 dilutions in DMSO. From each concentration, 2 further 1/10 dilutions were prepared in release buffer (137 mM NaCl, 2.70 mM KCI, 0.4 mM NaH2PO4, 5.6 mM (D)-glucose, 1.8 mM CaCl2, 1.3 mM MgSO4, 0.025% BSA). Finally, 5 µl from each diluted concentration were transferred into the assay plate (flat 96-well Nunc). The final compound concentrations tested ranged from 1x10^-5M to 4.12x10^-9M with a final proportion of DMSO in the assay of 0.1%. Control wells were treated with 0.1 % DMSO.
Sensitized LAD2 cells were centrifuged (300 g, 3 min, R.T.) and washed 2 times with release buffer. Cells were resuspended in release buffer and adjusted to a density of 0.2x10^6/mL. 45 µL of the adjusted cells were transfered to the assay plate (∼10,000cells/well) containg 5 µL of the final compound concentrations. LAD2 cells were incubated with the compound for 30 min (37 °C, 5% CO2 90% of humidity) and then activated with 125 ng/mL of streptavidin (Pierce 21125) for 30 min (37°C, 5% CO2, 90% of humidity). After the activation, cells were centrifuged at 1200 g, 10 min, 12 °C and supernatats were removed and transfered to another well for determination of released β-hexosaminidase. Empty wells were filled with 50 µL of release buffer for determination of intracellular β-hexosaminidase. Cells were lysed with 2 cycles of freeze-thaw.
Cells were incubated for 90 minutes, 37 °C with 1 mM β-hexosaminidase substrate (p-nitrophenyl N-acetyl-D-glucosamide, in citric buffer, pH 4.5). Reaction was stopped with 0.4 M glycine solution (pH 10.0) and the plate is read immediately at 405 nm.

Turning to `c1ccc2c(c1)c(Nc1cnccn1)nn2-c1cc(N2C[C@@H]3C[C@H]2CN3)ccn1` [Example 69, 1-{4-[(1S,4S)-2,5-Diazabicyclo[2.2.1]hept-2-yl]pyridin-2-yl}-N-pyrazin-2-yl-1H-indazol-3-amine], the IC50 on human full-length Syk came out at 13 nM; in the assay with LAD2 cells it was 263 nM.
Take `COCCOc1ccc2c(Nc3cnccn3)nn(-c3ccnc(N4C[C@@H]5C[C@H]4CN5)c3)c2c1` [Example 61, 1-{2-[(1S,4S)-2,5-diazabicyclo[2.2.1]hept-2-yl]pyridin-4-yl}-6-(2-methoxyethoxy)-N-pyrazin-2-yl-1H-indazol-3-amine]: the IC50 came out at 12 nM at human full-length Syk and 136 nM in the assay on LAD2 cells.
As for `Oc1ccc2c(Nc3cnccn3)nn(-c3ccnc(N4CCCNCC4)c3)c2c1` [Example 86, 1-[2-(1,4-diazepan-1-yl)pyridin-4-yl]-3-(pyrazin-2-ylamino)-1H-indazol-6-ol], the IC50 came to 15 nM on human full-length Syk and 263 nM in the assay on LAD2 cells.
The like results for `Oc1ccc2c(Nc3cnccn3)nn(-c3cncc(N4C[C@@H]5C[C@H]4CN5)c3)c2c1` [Example 63, 1-{5-[(1S,4S)-2,5-Diazabicyclo[2.2.1]hept-2-yl]pyridin-3-yl}-3-(pyrazin-2-ylamino)-1H-indazol-6-ol] were, in that order, 11 nM and 363 nM.
For `COc1ccc2c(Nc3cnccn3)nn(-c3ccnc(N4CCCNCC4)c3)c2c1` [Example 62, 1-[2-(1,4-diazepan-1-yl)pyridin-4-yl]-6-methoxy-N-pyrazin-2-yl-1H-indazol-3-amine], in that order: 17 nM and 169 nM.
The like results for `COc1ccc2c(Nc3cnccn3)nn(-c3ccnc(N4C[C@@H]5C[C@H]4CN5)c3)c2c1` [Example 31, 1-{2-[(1S,4S)-2,5-Diazabicyclo[2.2.1]hept-2-yl]pyridin-4-yl}-6-methoxy-N-pyrazin-2-yl-1H-indazol-3-amine] were, in that order, 8 nM and 111 nM.
Turning to `Cc1ccc2c(Nc3cnccn3)nn(-c3ccnc(N4C[C@@H]5C[C@H]4CN5)c3)c2c1` [Example 55, 1-{2-[(1S,4S)-2,5-Diazabicyclo[2.2.1]hept-2-yl]pyridin-4-yl}-6-methyl-N-pyrazin-2-yl-1H-indazol-3-amine], the IC50 at human full-length Syk is 6 nM; with LAD2 cells it was 142 nM.
Regarding `c1ccc2c(c1)c(Nc1cnccn1)nn2-c1ccnc(N2CCCNCC2)c1` [Example 8, 1-[2-(1,4-Diazepan-1-yl)pyridin-4-yl]-N-pyrazin-2-yl-1H-indazol-3-amine], the IC50 on human full-length Syk came out at 17 nM.
Turning to `Cc1ccc2c(Nc3cnccn3)nn(-c3cncc(N4C[C@@H]5C[C@H]4CN5)c3)c2c1` [Example 71, 1-{5-[(1S,4S)-2,5-diazabicyclo[2.2.1]hept-2-yl]pyridin-3-yl}-6-methyl-N-pyrazin-2-yl-1H-indazol-3-amine], the IC50 on human full-length Syk is 5 nM; in the assay on LAD2 cells, 111 nM.
For `C[C@H]1CNCCN1c1cc(-n2nc(Nc3cnccn3)c3ccccc32)ccn1` [Example 50, 1-{2-[(2S)-2-methylpiperazin-1-yl]pyridin-4-yl}-N-pyrazin-2-yl-1H-indazol-3-amine], in that order: 11 nM and 80 nM.
The like results for `Cc1ccnc(Nc2nn(-c3ccnc(N4C[C@@H]5C[C@H]4CN5)c3)c3cc(O)ccc23)c1` [Example 88, 1-{2-[(1S,4S)-2,5-diazabicyclo[2.2.1]hept-2-yl]pyridin-4-yl}-3-[(4-methylpyridin-2-yl)amino]-1H-indazol-6-ol] were, in that order, 5 nM and 364 nM.
As to `c1cnc(Nc2nn(-c3ccnc(N4C[C@@H]5C[C@H]4CN5)c3)c3cc(C4CC4)ccc23)cn1` [Example 58, 6-cyclopropyl-1-{2-[(1S,4S)-2,5-diazabicyclo[2.2.1]hept-2-yl]pyridin-4-yl}-N-pyrazin-2-yl-1H-indazol-3-amine], the IC50 was 4 nM at human full-length Syk and 266 nM in the assay with LAD2 cells.
For `COc1ccc2c(Nc3cnccn3)nn(-c3cccc(N4C[C@@H]5C[C@H]4CN5)c3)c2c1` [Example 89, 1-{3-[(1S,4S)-2,5-diazabicyclo[2.2.1]hept-2-yl]phenyl}-6-methoxy-N-pyrazin-2-yl-1H-indazol-3-amine], the figures for the IC50 on human full-length Syk and with LAD2 cells were 16 nM and 160 nM, respectively.
Consider `c1ccc2c(c1)c(Nc1cnccn1)nn2-c1ccnc(N2C[C@@H]3C[C@H]2CN3)c1` [Example 10, 1-{2-[(1S,4S)-2,5-Diazabicyclo[2.2.1]hept-2-yl]pyridin-4-yl}-N-pyrazin-2-yl-1H-indazol-3-amine], for which the IC50 stood at 7.4 nM at human full-length Syk and 55 nM with LAD2 cells.
For `Nc1ccc2c(Nc3cnccn3)nn(-c3ccnc(N4C[C@@H]5C[C@H]4CN5)c3)c2c1` [Example 12, 1-{2-[(1S,4S)-2,5-Diazabicyclo[2.2.1]hept-2-yl]pyridin-4-yl}-N^3-pyrazin-2-yl-1H-indazole-3,6-diamine], in that order: 2.5 nM and 167 nM.
For `Cc1nc(N2C[C@@H]3C[C@H]2CN3)cc(-n2nc(Nc3cnccn3)c3ccccc32)n1` [Example 42, 1-{6-[(1S,4S)-2,5-Diazabicyclo[2.2.1]hept-2-yl]-2-methylpyrimidin-4-yl}-N-pyrazin-2-yl-1H-indazol-3-amine], in that order: 9 nM and 254 nM.
For `O=C(c1ccc2c(Nc3cnccn3)nn(-c3ccnc(N4C[C@@H]5C[C@H]4CN5)c3)c2c1)N1CCCCC1` [Example 21, 1-{2-[(1S,4S)-2,5-Diazabicyclo[2.2.1]hept-2-yl]pyridin-4-yl}-6-(piperidin-1-ylcarbonyl)-N-pyrazin-2-yl-1H-indazol-3-amine], in that order: 10.5 nM and 342 nM.
With `COc1ccc2c(Nc3cnccn3)nn(-c3cc(N4C[C@@H]5C[C@H]4CN5)ncn3)c2c1` [Example 56, 1-{6-[(1S,4S)-2,5-diazabicyclo[2.2.1]hept-2-yl]pyrimidin-4-yl}-6-methoxy-N-pyrazin-2-yl-1H-indazol-3-amine], the IC50 was 15 nM on human full-length Syk and 179 nM in the assay with LAD2 cells.
With `COc1ccc2c(Nc3cnccn3)nn(-c3ccnc(N4CCNC[C@@H]4C)c3)c2c1` [Example 76, 6-Methoxy-1-{2-[(2S)-2-methylpiperazin-1-yl]pyridin-4-yl}-N-pyrazin-2-yl-1H-indazol-3-amine], the results for the 50% inhibitory concentration (IC50) on human full-length Syk and in the assay with LAD2 cells were 11 nM and 137 nM, respectively.
On to `O=S(=O)(Nc1ccc2c(Nc3cnccn3)nn(-c3ccnc(N4C[C@@H]5C[C@H]4CN5)c3)c2c1)c1ccccc1` [Example 30, N-[1-{2-[(1S,4S)-2,5-Diazabicyclo[2.2.1]hept-2-yl]pyridin-4-yl}-3-(pyrazin-2-ylamino)-1H-indazol-6-yl]benzenesulfonamide], for which the IC50 on human full-length Syk worked out at 20 nM.

The record behind these values is patent EP2489663A1, “Compounds as syk kinase inhibitors” (Almirall, S.A., priority 2011, dated 2012).
